Test results from ChEMBL document CHEMBL1212748, “Patients with long-term oral carriage harbor high-persister mutants of Candida albicans” (2010).
In brackets after ≈: the same amount, converted by molar mass. Activity calls are given as the source filed them. The calls are words filed in the database; no cut-off is given here.

Experiments:
[1] = system: Candida albicans; assay: Antimicrobial activity against Candida albicans high-persister mutants assessed as microbial death at 10 to 100 ug/ml after 48 hrs by broth microdilution method; type: functional, organism-based
[2] = system: Candida albicans; assay: Antimicrobial activity against Candida albicans high-persister mutants assessed as microbial death at 50 ug/ml after 48 hrs by broth microdilution method; type: functional, organism-based
[3] = system: Candida albicans; assay: Antimicrobial activity against Candida albicans CAF2-1 assessed as microbial death at 10 to 100 ug/ml after 48 hrs by broth microdilution method; type: functional, organism-based
[4] = system: Candida albicans; assay: Antimicrobial activity against Candida albicans low-persister mutants assessed as microbial death at 10 to 100 ug/ml after 48 hrs by broth microdilution method; type: functional, organism-based
[5] = system: Candida albicans; assay: Antimicrobial activity against Candida albicans high-persister mutants after 48 hrs by broth microdilution method; type: functional

SMILES | Activity [1] | Activity [2] | Activity [3] | Activity [4] | MIC [5] [µg/mL]
C[C@@H]1[C@H](O)[C@@H](C)/C=C/C=C/C=C/C=C/C=C/C=C/C=C/[C@H](O[C@@H]2O[C@H](C)[C@@H](O)[C@H](N)[C@@H]2O)C[C@@H]2O[C@](O)(C[C@@H](O)C[C@@H](O)[C@H](O)CC[C@@H](O)C[C@@H](O)CC(=O)O[C@H]1C)C[C@H](O)[C@H]2C(=O)O | Active | inactive | Active | Active | –
N=C(NCCCCCCNC(=N)NC(=N)Nc1ccc(Cl)cc1)NC(=N)Nc1ccc(Cl)cc1 [CHLORHEXIDINE] | – | – | – | – | 1.5 (≈ 2.97 µM)
